From paper PMC4193996 (Journal of Experimental & Clinical Cancer Research : CR, 2014)

Columns and labels:
[1] = tested on: h-Tel quadruplex DNA, 5'-biotin-d[AG3(T2AG3)3] (DNA, G4) AGGGTTAGGGTTAGGGTTAGGG; experiment: SPR
[2] = tested on: alternating hairpin duplex sequence 5'-biotin-CGA3T3C(CT)2GA3T3CG; experiment: SPR binding to duplex DNA
Protocol: (§1) Oligonucleotides 5’-biotin-d [AG3 (T2AG3)3] quadruplex and 5’-biotin-CGA3T3C(CT)2GA3T3CG were purchased from Midland Certified Reagent Company (Midland, TX). Purification of DNA, preparation of solutions, collection of data, and analysis of results were conducted according to methods adopted in an earlier study.
(§2) This technique takes advantage of the refractive index change elicits by the binding of the drug with the h-Tel quadruplex DNA sequence 5’-d[AGGG(TTAGGG)3]-3’ or an alternating hairpin duplex sequence immobilized on a sensor chip surface.

HT29 cells = experiment: Colony forming ability, single agent or combined with SN-38; assay type: cell-based, human
Protocol: The HT29 cells were seeded in 60 mm- Petri dishes at a density of 5x10^4 cells/ plate in DMEM medium plus 10% serum FCS. After 24 hours cells were exposed to the following drugs: Ethyl-10-hydroxy-camptothecin (SN-38; 0.2, 0.4, 0.8 μM for 2 hrs), compound 8 (at 0.1, 0.2 and 0.4 μM for 96 hours) and compound 1 (0.5 and 1 μM for 96 hours). In the combination experiments the two different sequence of drug administration were evaluated: campthotecin followed by G-quadruplex ligands and the inverse sequence at fixed equipotent ratios. The medium containing the first drug was removed and replaced with fresh medium containing the second drug. Colony forming ability was evaluated as previously reported.
Synergism, additivity, and antagonism were assessed by isobologram analysis as reported previously. Combination index (CI) values <0.9, > 0.9 < 1.2, and >1.2 indicate synergism, additivity, and antagonism, respectively. The Student’s t-test (unpaired, two-tailed) was used for comparing statistical differences. Differences were considered statistically significant when P < 0.05.
We have previously reported that compound 1 in combination therapy with topoisomerase (TOPO) I inhibitors (Camptothecins) produced a synergistic antitumoral activitiy in in vitro and in vivo models. […] The study of in vitro interaction between agent 8 and ethyl-10-hydroxy-camptothecin (SN-38), the active metabolite of camptothecin Irinotecan, was preceded by experiments in which the cell colony-forming ability of the human colorectal adenocarcinoma HT29 cells was evaluated at different doses of compound 1 or 8. […]
Figure 3 Anti-tumor efficacy of compound 8 in single or combined administration with the topoisomerase I inhibitor SN-38. […] Surviving fractions were calculated as the ratio of absolute survival of the treated sample/absolute survival of the untreated sample. […] In the histograms the surviving fractions calculated as in (A) are reported. […] (C) Combination Index for SN-38 and 8 was calculated by the Chou–Talalay method. […]

[3] = tested on: human 'normal' lung WI-38 cells; experiment: MTT proliferation assay, WI-38; assay type: cell-based
Protocol: Normal WI-38 diploid human lung fibroblasts and the human colorectal adenocarcinoma HT29 cells were obtained from American Type Culture Collection (Manassas, VA, USA). BJ fibroblasts expressing hTERT and SV40 early region (BJ-EHLT) were obtained as previously reported. Cells were grown in Dulbecco Modified Eagle Medium (D-MEM, Invitrogen Carlsbad, CA, USA) supplemented with 10% fetal calf serum, 2 mM L-glutamin and antibiotics.
MTT (3-(4,5-Dimethylthiazol-2-yl)-2,5-diphenyltetrazolium Bromide) assay was performed in treated and untreated cells for 96 hours. Cells were incubated with MTT solution (Sigma-Aldrich), and the purple formazan crystals were dissolved in isopropanol. Optical densities (OD) at 540 nm was determined on microplate reader.
Firstly, we investigated if they were able to efficiently promote growth inhibition of tumor cells without affecting the survival of normal cells in vitro. In Table 1 we report for each compound the concentration causing 50% of growth inhibition (GI50) calculated by performing a proliferation assay in the human colon cancer cell line HT-29 or in the human ‘normal’ lung WI-38 cells. […] On the basis of results described so far, we decided to exclude from the further analysis ligand 10 for its high value of hERG inhibition (95%) (Table 1).

[4] = target: T1, human recombinant M2 muscarinic receptor (Homo sapiens, UniProt P08172); experiment: M2 muscarinic receptor inhibition assay; assay type: binding; settings: read-out: Muscarinic (M2) % inh @1 μM
T1 sequence (P08172 1-466): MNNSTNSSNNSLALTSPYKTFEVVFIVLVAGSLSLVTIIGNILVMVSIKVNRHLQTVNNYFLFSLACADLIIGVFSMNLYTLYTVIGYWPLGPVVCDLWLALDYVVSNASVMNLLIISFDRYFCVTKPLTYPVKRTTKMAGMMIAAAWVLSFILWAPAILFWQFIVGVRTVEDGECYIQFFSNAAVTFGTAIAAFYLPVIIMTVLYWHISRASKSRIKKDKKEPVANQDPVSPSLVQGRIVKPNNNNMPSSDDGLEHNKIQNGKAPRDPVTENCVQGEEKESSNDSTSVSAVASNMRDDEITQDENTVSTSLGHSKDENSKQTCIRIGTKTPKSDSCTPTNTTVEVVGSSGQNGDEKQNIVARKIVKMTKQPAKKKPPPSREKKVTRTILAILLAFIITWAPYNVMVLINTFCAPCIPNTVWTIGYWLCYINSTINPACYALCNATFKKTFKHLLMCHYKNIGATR
Protocol: hEGR study and the M2 and the β2 receptor inhibition assay were performed as previously reported.
The new G-quadruplex ligands were designed in an attempt to obtain molecules with improved toxicological and on-target profiles, but maintaining the same favorable chemical and pharmacological features of the lead compound 1. With the aim of selecting the best variants, a step by step comparative analysis of their off- and on-target properties was performed. Initially the new molecules were tested for their ability to interact with and inhibit the human recombinant β2 adrenergic and M2 muscarinic receptors, and to reduce the hERG tail current in a patch clamp assay. […] Therefore, we might expect that the new ligands would impair cardiac functionality to a lesser extent than the lead molecule does.

[5] = tested on: h-Tel quadruplex DNA sequence 5'-d[AGGG(TTAGGG)3]-3'; experiment: SPR binding to quadruplex DNA; set-up: species or system human
Protocol: as §1, §2

SMILES: CC(=O)NCC#Cc1ccc2c3cccc4c3c([n+](C)c2c1)-c1ccccc1N4C [Compound 8]
- K [1]: 1.42e+07 M⁻¹
- Duplex DNA affinity K [2]: 0,9 x10^6 M^−1
- cell survival (colony-forming ability), single agent (HT29 cells; HT29, 96 hours, 0.1 to 0.8 μM): inhibited cell survival in a dose-dependent manner like compound 1 but more efficiently so
- Interaction with SN-38, inverse sequence (HT29 cells; HT29, G4-ligand followed by SN-38): additive or slight synergistic interaction
- Combination Index (CI) with SN-38 (HT29 cells; HT29, SN-38 (2 hrs) followed by the G4-ligand (96 hours)): < 0.5
- Ratio PMX WI38/HT29 ([3]; GI50 WI-38 / GI50 HT-29): 33,5
- GI50 ([3]; Homo sapiens, WI-38, MTT, 96 hours): 25.1 µM
- inhibition at 1 µM [4]: 99%
- Quadruplex DNA affinity K [5]: 14,2 x10^6 M^−1
- Quadruplex/duplex ratio ([5]; quadruplex vs duplex affinity): 15,8
